Square brackets hold non-standard residues; d marks the D form. Ends that are not written are not given here. pS = N[C@@H](COP(=O)(O)O)C(=O)O
How the values were obtained:
[1] = test system: expanded TIL / IHL cultures; test: ICS for MHC-I-pP reactivity of liver-derived lymphocyte cultures after unspecific rapid expansion protocol (REP); type: cell-based, human
CD8^+ T cells (PBMCs) = test: Intracellular cytokine staining (ICS) of PBMCs after 7 days of stimulation with MHC-I-pP (healthy donors, HH patients); type: cell-based, human; conditions: for Reactive CD8^+ T cell population, HH2: HH patient HH2; for Reactive CD8^+ T cell population, HH3: HH patient HH3; for Reactive CD8^+ T cell population, HH6: HH patient HH6; for Reactive CD8^+ T cell population, HH8: HH patient HH8; for Reactive CD8^+ T cell population, HH11: HH patient HH11; for Reactive CD8^+ T cell population, HD1: Healthy donor HD1; for Reactive CD8^+ T cell population, HD4: Healthy donor HD4; for Reactive CD8^+ T cell population, HD5: Healthy donor HD5
Outline: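 PBMCs or liver lymphocytes from HLA-A*0201-positive healthy donors and hereditary hemochromatosis patients were stimulated for 7 days with HLA-A*0201-restricted phosphopeptides and no added cytokines. After exclusion of doublets and dead cells with a fixable viability dye, CD3^+CD8^+ cells were analysed by intracellular staining for IFN-γ and TNF-α, plus CD107a where needed.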

[2] = test system: unexpanded lymphocyte cultures (CD8^+ T cells); test: ICS for MHC-I-pP reactivity of lymphocyte cultures without expansion (Table 23, No Expansion)
[3] = test system: expanded lymphocyte cultures from deceased donor livers, cirrhotic livers and HCC; test: ICS for MHC-I-pP reactivity of liver-derived lymphocyte cultures after phosphopeptide-specific expansion; type: cell-based, human; conditions: for ppCTL response, Deceased Donor Liver Do 2 / ppCTL response, Deceased Donor Liver Do 3 / ppCTL response, Deceased Donor Liver Do 4 / ppCTL response, Deceased Donor Liver Do 6 / ppCTL response, End-stage Liver Cirrhosis IHL 11 / ppCTL response, End-stage Liver Cirrhosis IHL 12 / ppCTL response, End-stage Liver Cirrhosis IHL 13 / ppCTL response, End-stage Liver Cirrhosis IHL 15 / ppCTL response, HCC Distal HCC 1 / ppCTL response, HCC Tumor HCC 1 / ppCTL response, HCC Distal HCC 4 / ppCTL response, HCC Distal HCC 9 / ppCTL response, HCC Tumor HCC 9 / ppCTL response, HCC Distal HCC 12: pP-specifically expanded culture; for ppCTL response, HCC Distal HCC 1: HCC 1 Distal; for ppCTL response, HCC Tumor HCC 1: HCC 1 Tumor; for ppCTL response, HCC Distal HCC 4: HCC 4 Distal; for ppCTL response, HCC Distal HCC 9: HCC 9 Distal; for ppCTL response, HCC Tumor HCC 9: HCC 9 Tumor; for ppCTL response, HCC Distal HCC 12: HCC 12 Distal

Substance	Reactive CD8^+ T cells, Non-specific Expansion, Do2 [1]	Reactive CD8^+ T cells, Non-specific Expansion, Do4 [1]	Reactive CD8^+ T cells, Non-specific Expansion, HH6 [1]	Reactive CD8^+ T cell population, HH2 (CD8^+ T cells (PBMCs))	Reactive CD8^+ T cell population, HH3 (CD8^+ T cells (PBMCs))	Reactive CD8^+ T cell population, HH6 (CD8^+ T cells (PBMCs))	Reactive CD8^+ T cell population, HH8 (CD8^+ T cells (PBMCs))	Reactive CD8^+ T cell population, HH11 (CD8^+ T cells (PBMCs))	Reactive CD8^+ T cell population, HD1 (CD8^+ T cells (PBMCs))	Reactive CD8^+ T cell population, HD4 (CD8^+ T cells (PBMCs))	Reactive CD8^+ T cell population, HD5 (CD8^+ T cells (PBMCs))	Reactive CD8^+ T cells, No Expansion, HH6 [2]	Reactive CD8^+ T cells, pP-specific Expansion, Do2 [3]	Reactive CD8^+ T cells, pP-specific Expansion, Do4 [3]	Reactive CD8^+ T cells, pP-specific Expansion, HH6 [3]	ppCTL response, Deceased Donor Liver Do 2 [3]	ppCTL response, Deceased Donor Liver Do 3 [3]	ppCTL response, Deceased Donor Liver Do 4 [3]	ppCTL response, Deceased Donor Liver Do 6 [3]	ppCTL response, End-stage Liver Cirrhosis IHL 11 [3]	other results
RLSsPLHFV: FAM134A phosphopeptide, HLA-A*0201 (RLS[pS]PLHFV; listed as Homo sapiens)	0 (<0.25% reactive CD8^-+ T cells)	0 (<0.25% reactive CD8^-+ T cells)	0 (<0.25% reactive CD8^-+ T cells)	1 (0.25-2.5% reactive CD8^-+ T cells)	0 (<0.25% reactive CD8^-+ T cells)	0 (<0.25% reactive CD8^-+ T cells)	0 (<0.25% reactive CD8^-+ T cells)	0 (<0.25% reactive CD8^-+ T cells)	0 (<0.25% reactive CD8^-+ T cells)	0 (<0.25% reactive CD8^-+ T cells)	0 (<0.25% reactive CD8^-+ T cells)	0 (<0.25% reactive CD8^-+ T cells)	0 (<0.25% reactive CD8^-+ T cells)	0 (<0.25% reactive CD8^-+ T cells)	0 (<0.25% reactive CD8^-+ T cells)	0 (<0.25% reactive CD8-+ T cells)	0 (<0.25% reactive CD8-+ T cells)	0 (<0.25% reactive CD8-+ T cells)	0 (<0.25% reactive CD8-+ T cells)	0 (<0.25% reactive CD8-+ T cells)	ppCTL response, End-stage Liver Cirrhosis IHL 12 [3]: 0 (<0.25% reactive CD8-+ T cells); ppCTL response, End-stage Liver Cirrhosis IHL 13 [3]: 0 (<0.25% reactive CD8-+ T cells); ppCTL response, End-stage Liver Cirrhosis IHL 15 [3]: 0 (<0.25% reactive CD8-+ T cells); ppCTL response, HCC Distal HCC 1 [3]: 0 (<0.25% reactive CD8-+ T cells); ppCTL response, HCC Tumor HCC 1 [3]: 0 (<0.25% reactive CD8-+ T cells); ppCTL response, HCC Distal HCC 4 [3]: 0 (<0.25% reactive CD8-+ T cells); ppCTL response, HCC Distal HCC 9 [3]: 0 (<0.25% reactive CD8-+ T cells); ppCTL response, HCC Tumor HCC 9 [3]: 0 (<0.25% reactive CD8-+ T cells); ppCTL response, HCC Distal HCC 12 [3]: 0 (<0.25% reactive CD8-+ T cells)
NLVPMVATV (Cytomegalovirus) [reference compound]	0 (<0.25% reactive CD8^-+ T cells)	5 (10-20% reactive CD8^-+ T cells)	1 (0.25-2.5% reactive CD8^-+ T cells)	4 (7.5-10% reactive CD8^-+ T cells)	0 (<0.25% reactive CD8^-+ T cells)	1 (0.25-2.5% reactive CD8^-+ T cells)	1 (0.25-2.5% reactive CD8^-+ T cells)	0 (<0.25% reactive CD8^-+ T cells)	0 (<0.25% reactive CD8^-+ T cells)	0 (<0.25% reactive CD8^-+ T cells)	0 (<0.25% reactive CD8^-+ T cells)	1 (0.25-2.5% reactive CD8^-+ T cells)	3 (5-7.5% reactive CD8^-+ T cells)	2 (2.5-5.0% reactive CD8^-+ T cells)	3 (5-7.5% reactive CD8^-+ T cells)	3 (5-7.5% reactive CD8-+ T cells)	0 (<0.25% reactive CD8-+ T cells)	2 (2.5-5.0% reactive CD8-+ T cells)	0 (<0.25% reactive CD8-+ T cells)	0 (<0.25% reactive CD8-+ T cells)	Reactive CD8^+ T cell population, HH10 (CD8^+ T cells (PBMCs); HH patient HH10): 3 (5-7.5% reactive CD8^-+ T cells); Reactive CD8^+ T cell population, HD2 (CD8^+ T cells (PBMCs); Healthy donor HD2): 0 (<0.25% reactive CD8^-+ T cells); Reactive CD8^+ T cell population, HD3 (CD8^+ T cells (PBMCs); Healthy donor HD3): 0 (<0.25% reactive CD8^-+ T cells); Reactive CD8^+ T cells, No Expansion, Do4 ([2]; Do4): 2 (2.5-5.0% reactive CD8^-+ T cells); ppCTL response, End-stage Liver Cirrhosis IHL 12 [3]: 0 (<0.25% reactive CD8-+ T cells); ppCTL response, End-stage Liver Cirrhosis IHL 13 [3]: 0 (<0.25% reactive CD8-+ T cells); ppCTL response, End-stage Liver Cirrhosis IHL 15 [3]: 0 (<0.25% reactive CD8-+ T cells); ppCTL response, HCC Distal HCC 1 [3]: 1 (0.25-2.5% reactive CD8-+ T cells); ppCTL response, HCC Tumor HCC 1 [3]: 0 (<0.25% reactive CD8-+ T cells); ppCTL response, HCC Distal HCC 4 [3]: 0 (<0.25% reactive CD8-+ T cells); ppCTL response, HCC Distal HCC 9 [3]: 0 (<0.25% reactive CD8-+ T cells); ppCTL response, HCC Tumor HCC 9 [3]: 0 (<0.25% reactive CD8-+ T cells); ppCTL response, HCC Distal HCC 12 [3]: 0 (<0.25% reactive CD8-+ T cells)
ALDsGASLLHL: RIPK4 phosphopeptide, HLA-A*0201 (ALD[pS]GASLLHL; listed as Homo sapiens)	0 (<0.25% reactive CD8^-+ T cells)	0 (<0.25% reactive CD8^-+ T cells)	0 (<0.25% reactive CD8^-+ T cells)	0 (<0.25% reactive CD8^-+ T cells)	0 (<0.25% reactive CD8^-+ T cells)	0 (<0.25% reactive CD8^-+ T cells)	0 (<0.25% reactive CD8^-+ T cells)	1 (0.25-2.5% reactive CD8^-+ T cells)	0 (<0.25% reactive CD8^-+ T cells)	0 (<0.25% reactive CD8^-+ T cells)	0 (<0.25% reactive CD8^-+ T cells)	2 (2.5-5.0% reactive CD8^-+ T cells)	0 (<0.25% reactive CD8^-+ T cells)	0 (<0.25% reactive CD8^-+ T cells)	2 (2.5-5.0% reactive CD8^-+ T cells)	0 (<0.25% reactive CD8-+ T cells)	0 (<0.25% reactive CD8-+ T cells)	0 (<0.25% reactive CD8-+ T cells)	0 (<0.25% reactive CD8-+ T cells)	0 (<0.25% reactive CD8-+ T cells)	ppCTL response, End-stage Liver Cirrhosis IHL 12 [3]: 0 (<0.25% reactive CD8-+ T cells); ppCTL response, End-stage Liver Cirrhosis IHL 13 [3]: 0 (<0.25% reactive CD8-+ T cells); ppCTL response, End-stage Liver Cirrhosis IHL 15 [3]: 3 (5-7.5% reactive CD8-+ T cells); ppCTL response, HCC Distal HCC 1 [3]: 0 (<0.25% reactive CD8-+ T cells); ppCTL response, HCC Tumor HCC 1 [3]: 0 (<0.25% reactive CD8-+ T cells); ppCTL response, HCC Distal HCC 4 [3]: 0 (<0.25% reactive CD8-+ T cells); ppCTL response, HCC Distal HCC 9 [3]: 0 (<0.25% reactive CD8-+ T cells); ppCTL response, HCC Tumor HCC 9 [3]: 0 (<0.25% reactive CD8-+ T cells); ppCTL response, HCC Distal HCC 12 [3]: 0 (<0.25% reactive CD8-+ T cells)

Source: patent US20190374627A1, “TARGET PEPTIDES FOR CANCER THERAPY AND DIAGNOSTICS” (priority 2016, published 2019)
